According to patent US9695426B2, “Biofuel production by recombinant microorganisms” (The Regents of the University of California, priority 2007, dated 2017):

What was measured:
E. coli IlvA = E. coli IlvA (Escherichia coli, UniProt P04968); conditions: purified E. coli IlvA in the absence of isoleucine; cited from earlier work
E. coli TdcB = E. coli TdcB (Escherichia coli, UniProt P0AGF6); conditions: E. coli TdcB in the absence of AMP; cited from earlier work
[1] = tested on: native 1-butanol producers; conditions: cited from earlier work
AHAS I = AHAS I (Escherichia coli, UniProt P08142); conditions: read-out: Km value for 2-ketobutyrate; cited from earlier work
[2] = tested on: E. coli culture expressing kivd; assay: Alcohol productions with the supply of 2-keto acids; format: cell-based; conditions: 2-keto acid added to E. coli culture expressing kivd
Description: The addition of various 2-keto acids (see Table 13) to the E. coli culture expressing kivd confirmed the specific production of the corresponding alcohols by 2- to 23-fold.

E. coli BW25113 = assay: propanol and butanol production via the threonine pathway with alternative enzymes; format: cell-based; conditions: BW ΔmetA, Δtdh, ΔilvB, ΔilvI; tdcB with leuABCD on pCS20; 72 hours
Protocol: For some alcohol fermentation experiments, single colonies were picked from LB plates and inoculated into 3 ml of LB media with the appropriate antibiotics (ampicillin 100 μg/ml, kanamycin 50 μg/ml, and spectinomycin 50 μg/ml). The overnight culture grown in LB at 37° C. in a rotary shaker (250 rpm) was then inoculated (1% vol/vol) into 20 ml of M9 medium (6 g Na2HPO4, 3 g KH2PO4, 0.5 g NaCl, 1 g NH4Cl, 1 mM MgSO4, 10 mg vitamin B1 and 0.1 mM CaCl2 per liter of water) containing 30 g/L glucose, 5 g/L yeast extract, appropriate antibiotics, and 1000× Trace Metal Mix A5 (2.86 g H3BO3, 1.81 g MnCl2.4H2O, 0.222 g ZnSO4.7H2O, 0.39 g Na2MoO4.2H2O, 0.079 g CuSO4.5H2O, 49.4 mg Co(NO3)2.6H2O per liter water) in 250 ml conical flask. The culture was allowed to grow at 37° C. in a rotary shaker (250 rpm) to an OD600 of 0.4˜0.6, then 12 ml of the culture was transferred to a 250 ml screw capped conical flask and induced with 1 mM IPTG. The induced cultures were grown at 30° C. in a rotary shaker (240 rpm). Samples were taken throughout the next three to four days by opening the screwed caps of the flasks, and culture broths were either centrifuged or filtered to retrieve the supernatant. […]
Metabolite Detections. The produced alcohol compounds were quantified by a gas chromatograph (GC) equipped with flame ionization detector. […]

E. coli IlvA, sequence (P04968 whole entry): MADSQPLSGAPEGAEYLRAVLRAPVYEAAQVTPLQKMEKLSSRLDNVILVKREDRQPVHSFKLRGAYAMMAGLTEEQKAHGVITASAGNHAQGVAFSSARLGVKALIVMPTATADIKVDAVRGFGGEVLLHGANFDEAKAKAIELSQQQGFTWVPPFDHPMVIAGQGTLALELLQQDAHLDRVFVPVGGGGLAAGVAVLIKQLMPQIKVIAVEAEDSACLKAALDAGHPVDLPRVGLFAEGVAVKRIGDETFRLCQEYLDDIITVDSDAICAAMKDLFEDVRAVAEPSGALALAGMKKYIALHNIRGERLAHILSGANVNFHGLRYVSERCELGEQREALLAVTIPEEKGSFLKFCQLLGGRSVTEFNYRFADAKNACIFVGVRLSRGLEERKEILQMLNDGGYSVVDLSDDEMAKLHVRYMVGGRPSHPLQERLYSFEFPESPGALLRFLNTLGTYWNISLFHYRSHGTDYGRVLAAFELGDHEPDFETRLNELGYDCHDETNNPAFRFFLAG
AHAS I, sequence (P0ADF8 whole entry): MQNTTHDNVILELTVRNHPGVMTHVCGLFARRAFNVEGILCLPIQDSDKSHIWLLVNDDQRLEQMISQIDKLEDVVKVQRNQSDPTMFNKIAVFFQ
AHAS I, sequence (P08142 whole entry): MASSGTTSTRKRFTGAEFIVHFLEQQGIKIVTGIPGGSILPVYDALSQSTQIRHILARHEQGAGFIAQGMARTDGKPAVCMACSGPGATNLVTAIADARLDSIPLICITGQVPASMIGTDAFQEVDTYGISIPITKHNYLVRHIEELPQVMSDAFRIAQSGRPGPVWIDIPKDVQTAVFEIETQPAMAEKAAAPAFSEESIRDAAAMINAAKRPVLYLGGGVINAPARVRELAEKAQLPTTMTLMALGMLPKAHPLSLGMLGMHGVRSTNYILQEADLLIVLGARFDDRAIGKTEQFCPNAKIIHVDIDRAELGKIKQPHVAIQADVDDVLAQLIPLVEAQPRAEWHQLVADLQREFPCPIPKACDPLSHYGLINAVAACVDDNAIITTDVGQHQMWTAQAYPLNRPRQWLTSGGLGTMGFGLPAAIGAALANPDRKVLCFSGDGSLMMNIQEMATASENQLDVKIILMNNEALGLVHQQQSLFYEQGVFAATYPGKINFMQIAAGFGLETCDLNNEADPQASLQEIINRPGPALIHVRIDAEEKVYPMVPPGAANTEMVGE

In the case of C[C@@H](O)[C@H](N)C(=O)O [threonine], the Km (E. coli IlvA) is given as 8 mM and the Km (E. coli TdcB) is given as 20 mM.

In the case of CCCCO [1-butanol], the “tolerated 1-butanol concentration” value [1] is listed as “up to 2%”.

In the case of CCC(=O)C(=O)O [2-ketobutyrate], the Km (AHAS I) is listed as about 5 mM, the “Product 1-butanol” value [2] is listed as 492 µM and the “Product 1-propanol” value [2] is listed as 2138 µM. For the same molecule, the “Product 2-methyl-1-butanol” value [2] was 1315 µM, the “Product 2-phenylethanol” value [2] was 26 µM and the Product isobutanol [2] was 98 µM.

B1: TdcB: E. coli's catabolic threonine dehydratase (protein, UniProt P0AGF6 1-329, looked up)
L-threonine dehydratase …: MHITYDLPVAIDDIIEAKQRLAGRIYKTGMPRSNYFSERCKGEIFLKFENMQRTGSFKIRGAFNKLSSLTDAEKRKGVVACSAGNHAQGVSLSCAMLGIDGKVVMPKGAPKSKVAATCDYSAEVVLHGDNFNDTIAKVSEIVEMEGRIFIPPYDDPKVIAGQGTIGLEIMEDLYDVDNVIVPIGGGGLIAGIAVAIKSINPTIRVIGVQSENVHGMAASFHSGEITTHRTTGTLADGCDVSRPGNLTYEIVRELVDDIVLVSEDEIRNSMIALIQRNKVVTEGAGALACAALLSGKLDQYIQNRKTVSIISGGNIDLSRVSQITGFVDA
With B1 the “lower production of both target alcohols compared to IlvA” value (E. coli BW25113) was 70%.
